# Laboratory results as given in US20070060573A1, “Acyltryptophanols” (priority 2005, published 2007).
# Target: T1, human FSH receptor (Homo sapiens, UniProt P23945)
# T1 construct: expressed in transfected cells; host or cells: CHO cells (hFSHR clone 16)
# T1 sequence (P23945 18-695): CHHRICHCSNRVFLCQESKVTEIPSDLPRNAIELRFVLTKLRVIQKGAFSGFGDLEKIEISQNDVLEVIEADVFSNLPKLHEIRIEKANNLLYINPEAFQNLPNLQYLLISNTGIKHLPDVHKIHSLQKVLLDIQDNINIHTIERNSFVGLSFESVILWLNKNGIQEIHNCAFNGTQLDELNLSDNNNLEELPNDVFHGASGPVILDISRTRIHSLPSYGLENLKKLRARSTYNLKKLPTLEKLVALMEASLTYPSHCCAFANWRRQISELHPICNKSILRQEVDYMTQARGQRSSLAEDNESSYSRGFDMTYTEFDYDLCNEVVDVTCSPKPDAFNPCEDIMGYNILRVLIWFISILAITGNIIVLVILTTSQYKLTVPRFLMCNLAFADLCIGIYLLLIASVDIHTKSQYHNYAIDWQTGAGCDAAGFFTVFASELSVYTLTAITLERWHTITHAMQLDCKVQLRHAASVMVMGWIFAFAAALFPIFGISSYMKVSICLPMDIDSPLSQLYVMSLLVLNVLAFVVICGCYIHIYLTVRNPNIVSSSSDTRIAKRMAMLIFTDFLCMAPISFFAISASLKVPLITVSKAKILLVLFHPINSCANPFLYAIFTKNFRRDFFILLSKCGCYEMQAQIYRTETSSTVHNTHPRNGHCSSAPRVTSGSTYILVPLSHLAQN
# Experiment: HTRF assay for measuring cAMP in cells, FSH-antagonistic effect (in the presence of hFSH)
# Type: cell-based
# Conditions: hFSHR clone 16 cells (CHO cells stably transfected with the human FSH receptor), in the presence of 1e-9 mol/l hFSH, 37° C. for 2 h
# From the text: […]
row,SMILES,IC50
1,"COCCCc1ccc2nc(-c3cc(OC)c(OC)c(OC)c3)cc(C(=O)N[C@@H](CO)Cc3c[nH]c4ccccc34)c2c1 [Example 392, 6-(3-Methoxypropyl)-2-(3,4,5-trimethoxyphenyl) quinoline-4-carboxylic acid [(R)-1-hydroxy-methyl-2-(1H-indol-3-yl)ethyl]amide]",1500 nM
2,"COc1ccc(-c2cc(CCCO)cc(C(=O)N[C@@H](CO)Cc3c[nH]c4ccccc34)c2)cc1OC [Example 396, 5-(3-Hydroxypropyl)-3′,4′-dimethoxybiphenyl-3-carboxylic acid [(R)-1-hydroxymethyl-2-(1H-indol-3-yl)ethyl]amide]",3500 nM
3,"COc1ccc(-c2cccc(C(=O)N[C@@H](CO)Cc3cn(CCCCC#N)c4ccccc34)c2)cc1F [Example 403, N-[(R)-2-[1-(4-Cyanobutyl)-1H-indol-3-yl]-1-(hydroxymethyl)ethyl]-3′-fluoro-4′-methoxy[1,1′-biphenyl]-3-carboxamide]",100 nM

# Next, values leading:
row,IC50,SMILES
1,300 nM,"O=C(N[C@@H](CO)Cc1c[nH]c2ccccc12)c1cc(-c2ccc3c(c2)OCO3)ccc1OC1CCCC1 [Example 418, 5-Benzo[1,3]dioxol-5-yl-2-cyclopentyloxy-N-[(R)-1-hydroxymethyl-2-(1H-indol-3-yl)ethyl]benzamide]"
2,400 nM,"CCOc1ccc(-c2cccc(-c3ccccc3)c2)cc1C(=O)NC(CO)Cc1c[nH]c2ccccc12 (stereo not drawn) [Example 430, 4-Ethoxy-[1,1′; 3′,1″]terphenyl-3-carboxylic acid [1-hydroxymethyl-2-(1H-indol-3-yl)ethyl]amide]"
3,1000 nM,"CCOc1ccc(-c2ccc(S(=O)(=O)CC)cc2)cc1C(=O)N[C@@H](CO)Cc1c[nH]c2ccccc12 [Example 483, 4-Ethanesulphonyl-4-ethoxybiphenyl-3-carboxylic [(R)-2-hydroxy-1-(1H-indol-3-ylmethyl)ethyl]amide]"
